Target: T1, CrPhotLOV1 (Chlamydomonas reinhardtii, UniProt Q8LPD9)
T1 construct: gene PHOT; LOV1 domain, residues 16-133; N-terminal His-tag (pET16b) removed by limited trypsin proteolysis; expressed in E. coli BL21 DE3
T1 sequence (Q8LPD9 16-133): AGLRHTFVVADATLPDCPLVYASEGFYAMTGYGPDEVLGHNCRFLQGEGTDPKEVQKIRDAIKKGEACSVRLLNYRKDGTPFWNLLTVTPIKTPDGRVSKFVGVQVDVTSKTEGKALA
Assay: X-ray crystallography (cryo, serial and time-resolved serial synchrotron); FTIR difference spectroscopy on crystals
Assay type: binding
Conditions: dark state: non-covalent; after blue light: covalent thioether adduct of Cys57 S-gamma to FMN C4a; crystals at pH 6.5; 100 K and room temperature

Cc1cc2nc3c(=O)[nH]c(=O)nc-3n(C[C@H](O)[C@H](O)[C@H](O)COP(=O)(O)O)c2cc1C [FMN, flavin mononucleotide]
X-ray crystallography (cryo, serial and time-resolved serial synchrotron); FTIR: light-induced formation of the thioether covalent adduct
